≈ marks a conversion by molar mass, not a printed value. Marks after values point to notes of the source that are not given here.
Key:
[1] = system: LPS-stimulated macrophages; conditions: published results, El-Mahmoudy 2002; cited from earlier work
[2] = system: IL-6 secretion in 3T3-L1 adipocytes; assay: IL-6 secretion in t10-CLA-stimulated 3T3-L1 adipocytes; type: cell-based, murine
Protocol: Treatment—Test materials were added four hours prior to the addition of t10-CLA at a concentration of 50 μM. Following overnight incubation, the supernatant media were sampled for determination of IL-6 and adiponectin. Interleukin-6 assay—The IL-6 secreted into the medium in response to […] stimulation was quantified using the Quantikine® Mouse IL-6 Immunoassay kit with no modifications (R&D Systems, Minneapolis, Minn.). […] All supernatant media samples were diluted 1:30 for quantification. Statistical Calculations and Interpretation—Test materials and were assayed in duplicate, while solvent controls were replicated eight times. IL-6 and adiponectin secretion were represented relative to the IL-6 and adiponectin secretion of the t10-CLA only controls as the IL-6 and adiponectin index and differences among the means were analyzed by the student's t-test assuming a five percent probability of a type I error (Excel; Microsoft, Redmond, Wash.).

[3] = system: iNOS-mediated NO biosynthesis in 3T3-L1 adipocytes; assay: LTI cytokine-stimulated NO biosynthesis in 3T3-L1 adipocytes; type: cell-based, murine; conditions: Mus musculus, value computed on the basis of TQ content, LPS/TNFα/IFγ stimulation 20 hours, (95% confidence interval), read-out: Median Inhibitory Concentration for iNOS-mediated NO biosynthesis, 3T3-L Adipocytes
Protocol: Cell culture and treatment-The murine fibroblast cell line 3T3-L1 was purchased from the American Type Culture Collection (Manassas, Va.) and sub-cultured according to instructions from the supplier. Prior to experiments, cells were cultured in DMEM containing 10% FBS-HI added 50 units penicillin/ml and 50 μg streptomycin/ml, and maintained in log phase prior to experimental setup. Cells were grown in a 5% CO2 humidified incubator at 37° C. Components of the pre-confluent medium included: (1) 10% FBS/DMEM (Fetal Bovine Serum/Dulbecco's Modified Eagle's Medium) containing 4.5 g glucose/L; (2) 50 U/ml penicillin; and (3) 50 μg/ml streptomycin. Growth medium was made by adding 50 ml of heat inactivated FBS and 5 ml of penicillin/streptomycin to 500 ml DMEM. This medium was stored at 4° C. Before use, the medium was warmed to 37° C. in a water bath. […] cells were seeded at an initial density of 6×10^4 cells/cm^2 in 24-well plates. […] Determination of nitrite in waters by microplate fluorescence spectroscopy and HPLC with fluorescence detection. […] After a reaction time of 30 minutes at ambient temperature, the fluorescence was read with 485 nm excitation filter and a 530 nm emission filter in a Packard Fluorocount spectrofluorometer (Model #BF10000, Meridan, Conn.). […] Quantitative analysis of dose-effect relationships: the combined effects of multiple drugs or enzyme inhibitors.

[4] = DPPH free radical scavenging (antioxidant) activity; type: biochemical; conditions: computed on basis of TQ content
Protocol: Methodology—Antioxidant activity was determined utilizing 2,2-diphenyl-1-picrylhydrazyl (DPPH), which is a stable radical. […] The color turns from purple to yellow as the molar absorption of the DPPH radical at 550 nm is reduced when the odd electron of DPPH radical becomes paired with hydrogen from a free radical scavenging antioxidant to form the reduced DPPH-H. The test samples were dissolved in methanol containing 1% dimethyl sulfoxide and added to microtiter wells in 100 μL aliquots to 100 μL of a 100 μM DPPH solution in methanol. Readings were taken at 10, 30 and 60 minutes following the addition of the test material. Percent inhibition of the DPPH radical by the test material was computed relative to the inhibition of the DPPH radical by the vitamin E analog trolox and tabulated as μmol trolox/g test material.

[5] = system: prostate specific antigen (PSA) secretion from LNCaP prostate cells; assay: Prostate specific antigen secretion from LNCaP prostate cells; type: cell-based, human; conditions: for Effect on PSA Secretion over 24 Hours: LNCaP cells; for PSA secretion: 24 hours
Description: Chemicals—PSA was quantified from the cell culture supernatant fluid using the Quantikine Human KLK3/PSA Immunoassay kit (R&D Systems, Inc., Minnaepolis, Minn.). All other materials used in this example were purchased from Sigma (St. Louis, Mo.) or otherwise noted and were of the highest purity commercially available. The N. sativa samples used in this study were those commercial-scale extracts described in Example 1. Cell culture and treatment—The LNCaP prostate cell line, which produces PSA, was used to study the effects of commercial-scale N. sativa scale extracts of Example 1 and pure TQ on the secretion of PSA. LNCaP cells were purchased from the American Type Culture Collection (ATCC, Manassas, Va.) and sub-cultured according to instructions supplied by ATCC. Prior to experiments, cells were cultured in DMEM containing 10% FBS-HI added 50 units penicillin/ml and 50 μg streptomycin/ml, and maintained in log phase prior to experimental setup. Cells were grown in a 5% CO2 humidified incubator at 37° C. Components of medium included: (1) 10% FBS/DMEM (Fetal Bovine Serum/Dulbecco's Modified Eagle's Medium) containing 4.5 g glucose/L; (2) 50 U/ml penicillin; and (3) 50 μg/ml streptomycin. Growth medium was made by adding 50 ml of heat inactivated FBS and 5 ml of penicillin/streptomycin to 500 ml DMEM. This medium was stored at 4° C. Before use, the medium was warmed to 37° C. in a water bath. LNCaP cells were seeded at an initial density of 6×10^4 cells/cm^2 in 96-well plates. For two days, the cells were allowed grow to reach confluence. On day three post seeding, cells were treated with TQ, NS8, NS9, NS10, Spent#1, and NSSpent#2 at the concentrations listed in FIGS. 5, 6 and 7. Twenty-four hours later, the supernatant media were sampled and assayed for PSA.

## CC1=CC(=O)C(C(C)C)=CC1=O [Thymoquinone (Sigma), thymoquinone]
[1]
  IC50 for NO inhibition in LPS-stimulated macrophages: 1.4 to 2.8 µg/mL
[2]; concentrations of Table 8
  effect on IL-6 secretion in t10-CLA-stimulated adipocytes: inhibited IL-6 secretion
[2]; relative to t10-CLA only control (100), 50 μM t10-CLA, overnight, each material at its tabulated concentration
  IL-6 Index: 75*
[3]
  IC50: 1.9 µg/mL (≈ 11.6 µM)
[4]
  DPPH Reducing Activity: 45.2 μmol Trolox/g TQ
[5]
  Effect on PSA Secretion over 24 Hours: Decreased PSA at 5 and 10 μg/mL, dramatic increase
[5]; listed as TQ
  Effect on PSA Secretion over 24 Hours: decreased PSA only at the two lowest doses tested
[5]; highest dose (100 μg/mL per Table 4)
  PSA secretion: 207%
[5]; second highest dose (50 μg/mL per Table 4)
  PSA secretion: 166%

— US8535740B2, “Compositions from Nigella sativa” (priority 2002, dated 2013)
